Experimental data: patent publication US7868147B2, “Fluorescent probe” (Sekisui Medical Co., Ltd., priority 2003, dated 2011)

How the values were obtained:
[1] = literature (Lindqvist et al., 1966); cited from earlier work
[2] = Oxidation potential of the benzene ring moiety (PET donor); assay type: physicochemical; conditions: 0.1 M acetonitrile containing tetrabutylammonium perchlorate (TBAP)
From the text: For the selection of a combination of R^1 and R^2, information of the electron density of the benzene ring to which they bind may be utilized. Information of the electron density of the benzene ring is easily available, for example, by calculating oxidation potential of said benzene ring according to a quantum chemical means. A reduction of the oxidation potential of said benzene ring means an increase of the electron density of said benzene ring, which corresponds to an elevation of HOMO orbital energy. For example, HOMO energy of said benzene ring moiety can be determined by a density functional theory (B3LYP/6-31G(d)). All the oxidation potentials described in the specification are indicated as values obtained with a saturated calomel electrode as a reference electrode, of which base line is different by about 0.24 V from that used for values obtained with a silver/silver nitrate electrode (Ag/Ag^+) as a reference electrode.
(§1) Correlation between fluorescence quantum yield and the oxidation potential of the benzene ring moiety of each compound prepared above was studied. As clearly shown by the results in the figure, the fluorescence quantum yield of each compound changed depending on the oxidation potential of the benzene ring moiety. In an alkaline solution at pH 13, the OH group of the xanthene ring dissociates its proton to become an anion, and under this condition, the compound whose oxidation potential is 1.20V or lower became almost non-fluorescent, whereas the compound whose oxidation potential is 1.65V or higher emitted fluorescence with a quantum yield of almost 1. Between the two values, it was observed that the quantum yield decreases according to the decrease in the oxidation potential. An oxidation potential of the benzene ring under the acidic condition at pH 3.4, which has an influence on fluorescence, is different from that under a basic condition, i.e., the compound whose oxidation potential is 1.60V or lower is almost no fluorescent, whereas the compound whose oxidation potential is 1.90V or higher emitted fluorescence with a quantum yield of almost 0.3. It is known that the OH group of the xanthene ring is protonated at pH 3.4, and under this condition, the quantum yield of Fluorescein is about 0.3.

[3] = Maximum excitation and fluorescence wavelength of fluorescein derivatives; assay type: physicochemical; conditions: measured in 0.1 N aqueous NaOH
From the text: as §1

[4] = Fluorescence quantum yield; assay type: physicochemical; conditions: for Φfl (pH 3.4): pH 3.4, xanthene OH protonated; for Φfl (pH 13): pH 13, xanthene OH deprotonated
From the text: as §1

[5] = Fluorescence quantum yield; assay type: physicochemical; conditions: 100 mM sodium phosphate buffer

Compound	Oxidation potential [2] [V vs SCE]	Maximum excitation wavelength [3] [nm]	Maximum fluorescence wavelength [3] [nm]	Φfl (pH 3.4) [4]	Φfl (pH 13) [4]	Φfl ([5]; pH 7.4)	Φfl ([5]; pH 9.0)	fluorescence quantum yield relative to fluorescein [1]
O=c1ccc2c(-c3ccccc3)c3ccc(O)cc3oc-2c1 [6-Hydroxy-9-phenylfluorone]	–	–	–	–	–	–	–	lower fluorescence quantum yield
COc1ccc(-c2c3ccc(=O)cc-3oc3cc(O)ccc23)c(OC)c1 [Compound 7]	1.44	494	513	0.001	0.200	–	–	–
COc1ccc(OC)c(-c2c3ccc(=O)cc-3oc3cc(O)ccc23)c1 [Compound 8]	1.26	494	512	0.000	0.010	–	–	–
COc1ccc(-c2c3ccc(=O)cc-3oc3cc(OP(=O)(O)O)ccc23)c(C)c1 [Compound 11]	–	–	–	–	–	0.029	–	–
COC(=O)COc1ccc(-c2c3ccc(=O)cc-3oc3cc(O[C@@H]4OC(COC(C)=O)[C@H](OC(C)=O)C(OC(C)=O)C4OC(C)=O)ccc23)c(C)c1 (stereo partly shown) [Compound 16]	–	–	–	–	–	0.069	–	–
COC(=O)CCCCOc1ccc(-c2c3ccc(=O)cc-3oc3cc(O[C@@H]4OC(COC(C)=O)[C@H](OC(C)=O)C(OC(C)=O)C4OC(C)=O)ccc23)c(C)c1 (stereo partly shown) [Compound 18]	–	–	–	–	–	0.005	–	–

More lines, main results first:

Oxidation potential [2] [V vs SCE]	Maximum excitation wavelength [3] [nm]	Maximum fluorescence wavelength [3] [nm]	Φfl (pH 3.4) [4]	Φfl (pH 13) [4]	Φfl ([5]; pH 7.4)	Φfl ([5]; pH 9.0)	Compound	fluorescence quantum yield relative to fluorescein [1]
2.19	491	510	0.319	0.847	–	–	Cc1ccccc1-c1c2ccc(=O)cc-2oc2cc(O)ccc12 [Compound 1]	–
2.08	491	510	0.307	0.865	–	–	Cc1ccc(-c2c3ccc(=O)cc-3oc3cc(O)ccc23)c(C)c1 [Compound 2]	–
1.98	491	510	0.319	0.887	–	–	Cc1ccc(C)c(-c2c3ccc(=O)cc-3oc3cc(O)ccc23)c1 [Compound 3]	–
1.75	494	515	0.076	0.860	–	–	COc1ccccc1-c1c2ccc(=O)cc-2oc2cc(O)ccc12 [Compound 4]	–
1.66	492	509	0.010	0.840	–	–	COc1ccc(-c2c3ccc(=O)cc-3oc3cc(O)ccc23)c(C)c1 [Compound 5]	–
1.57	494	514	0.004	0.500	–	–	COc1ccc(C)cc1-c1c2ccc(=O)cc-2oc2cc(O)ccc12 [Compound 6]	–
–	–	–	–	–	–	0.87	COC(=O)COc1ccc(-c2c3ccc(=O)cc-3oc3cc(O)ccc23)c(C)c1 [Compound 15]	–
–	–	–	–	–	–	0.82	COC(=O)CCCCOc1ccc(-c2c3ccc(=O)cc-3oc3cc(O)ccc23)c(C)c1 [Compound 17]	–
